Laboratory results reported in patent publication US20250136570A1 (Tango Therapeutics, Inc., priority 2021, published 2025).

How the values were obtained:
[1] = molecular target: Recombinant HDAC1 (Homo sapiens (Human), UniProt Q13547); experiment: HDAC1 inhibition, Fluor de Lys fluorescent enzyme assay; type: biochemical; conditions: 3 hours pre-incubation at room temp; 6 nM enzyme; 16 μM Fluor de Lys substrate; duplicate
Summary of the method: (§1)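 Enzyme (HDAC1 6 nM, HDAC3/NCor2 1.2 nM final) pre-incubated with compound 3 h at ~22 °C in Tris pH 8 buffer with 0.01% BSA. Reaction run 1 h with 16 μM Fluor de Lys substrate and stopped with TSA-containing developer. Fluorescence read at Ex 360/Em 460; IC50 from an occupancy equation with Hill coefficient, in duplicate.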

[2] = molecular target: HDAC3/NCor2 (Homo sapiens (Human), UniProt O15379); experiment: HDAC3 inhibition, Fluor de Lys fluorescent enzyme assay; type: biochemical; conditions: 3 hours pre-incubation at room temp; 1.2 nM enzyme; 16 μM Fluor de Lys substrate; duplicate
Summary of the method: as §1

Chain of HDAC3/NCor2 (O15379 whole entry): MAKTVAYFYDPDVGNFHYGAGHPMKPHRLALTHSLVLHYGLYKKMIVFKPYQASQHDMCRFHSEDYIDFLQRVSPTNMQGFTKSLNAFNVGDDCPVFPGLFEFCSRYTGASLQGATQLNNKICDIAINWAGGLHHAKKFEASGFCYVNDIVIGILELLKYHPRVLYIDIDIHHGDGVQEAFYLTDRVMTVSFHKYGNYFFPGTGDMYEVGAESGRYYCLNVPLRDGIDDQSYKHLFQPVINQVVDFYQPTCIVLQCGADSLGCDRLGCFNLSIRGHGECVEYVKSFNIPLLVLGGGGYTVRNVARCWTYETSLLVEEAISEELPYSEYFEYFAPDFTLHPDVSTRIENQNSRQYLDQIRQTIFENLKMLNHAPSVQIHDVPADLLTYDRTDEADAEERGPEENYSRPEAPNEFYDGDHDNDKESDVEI
Chain of HDAC3/NCor2 (Q9Y618 395-489 partner): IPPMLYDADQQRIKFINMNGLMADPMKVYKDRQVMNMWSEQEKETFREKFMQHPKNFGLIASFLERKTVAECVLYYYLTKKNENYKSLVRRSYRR
Chain of Recombinant HDAC1 (Q13547 whole entry): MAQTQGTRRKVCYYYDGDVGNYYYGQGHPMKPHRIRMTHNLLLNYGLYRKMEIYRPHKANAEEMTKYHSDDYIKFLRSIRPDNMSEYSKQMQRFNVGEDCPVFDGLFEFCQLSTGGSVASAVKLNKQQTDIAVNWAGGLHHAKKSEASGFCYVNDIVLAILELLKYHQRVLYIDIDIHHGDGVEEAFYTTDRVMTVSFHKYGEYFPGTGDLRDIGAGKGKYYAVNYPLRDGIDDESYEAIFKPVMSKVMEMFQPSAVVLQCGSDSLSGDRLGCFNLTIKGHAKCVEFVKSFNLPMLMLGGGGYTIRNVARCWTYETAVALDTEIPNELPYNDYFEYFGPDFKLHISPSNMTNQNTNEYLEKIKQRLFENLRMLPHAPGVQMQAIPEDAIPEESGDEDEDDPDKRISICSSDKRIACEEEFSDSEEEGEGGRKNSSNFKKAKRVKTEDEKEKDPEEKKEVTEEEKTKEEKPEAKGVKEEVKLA

IC50 [1]	IC50 [2]	SMILES
< 100 nM	500 to 2000 nM	CS(=N)(=O)c1cnc2cc(C(=O)Nc3cc(-c4ccc(F)cc4)ccc3N)sc2c1 (stereo not shown) [Compound 200, N-[2-amino-5-(4-fluorophenyl)phenyl]-6-(methylsulfonimidoyl)thieno[3,2-b]pyridine-2-carboxamide]
< 100 nM	500 to 2000 nM	CS(=N)(=O)Cc1ccc2oc(C(=O)Nc3cc(-c4ccc(F)cc4)ccc3N)cc2c1 (stereo not shown) [Compound 170, N-[2-amino-5-(4-fluorophenyl)phenyl]-5-[(methylsulfonimidoyl)methyl]benzofuran-2-carboxamide]
< 100 nM	100 to 500 nM	CS(=N)(=O)c1ccc(C(=O)Nc2cc(-c3cccs3)ccc2N)nn1 (stereo not shown) [Compound 124, N-[2-amino-5-(2-thienyl)phenyl]-6-(methylsulfonimidoyl)pyridazine-3-carboxamide]
< 100 nM	500 to 2000 nM	N=S(=O)(c1ccc(F)cc1)c1ccc(C(=O)Nc2cc(-c3ccc(F)cc3)ccc2N)cc1 (stereo not shown) [Compound 214, N-[2-amino-5-(4-fluorophenyl)phenyl]-4-[(4-fluorophenyl)sulfonimidoyl]benzamide]
< 100 nM	500 to 2000 nM	Cn1cncc1S(=N)(=O)c1ccc(C(=O)Nc2cc(-c3ccc(F)cc3)ccc2N)cc1 (stereo not shown) [Compound 242, N-[2-amino-5-(4-fluorophenyl)phenyl]-4-[(3-methylimidazol-4-yl)sulfonimidoyl]benzamide]
< 100 nM	500 to 2000 nM	N=S(=O)(c1ccncc1)c1ccc(C(=O)Nc2cc(-c3ccc(F)cc3)ccc2N)cc1 (stereo not shown) [Compound 168, N-[2-amino-5-(4-fluorophenyl)phenyl]-4-(4-pyridylsulfonimidoyl)benzamide]
< 100 nM	500 to 2000 nM	CS(=N)(=O)c1ccc(C(=O)Nc2cc(-c3cccs3)ccc2N)nc1 (stereo not shown) [Compound 113, N-[2-amino-5-(2-thienyl)phenyl]-5-(methylsulfonimidoyl)pyridine-2-carboxamide]
< 100 nM	500 to 2000 nM	C[S@@](=N)(=O)c1ccc(C(=O)Nc2cc(-c3cccs3)ccc2N)cc1 (single isomer, unassigned) [Compound 105]
< 100 nM	500 to 2000 nM	Cc1ccc(S(=N)(=O)c2ccc(C(=O)Nc3cc(-c4ccc(F)cc4)ccc3N)cc2)cn1 (stereo not shown) [Compound 233, N-[2-amino-5-(4-fluorophenyl)phenyl]-4-[(6-methyl-3-pyridyl)sulfonimidoyl]benzamide]
< 100 nM	> 2000 nM	CS(=N)(=O)c1ccc(C(=O)Nc2cc(-c3ccc(Cl)cc3)ccc2N)cc1 (stereo not shown) [Compound 182, N-[2-amino-5-(4-chlorophenyl)phenyl]-4-(methylsulfonimidoyl)benzamide]
100 to 500 nM	> 2000 nM	Cc1ncc(-c2ccc(N)c(NC(=O)c3ccc(S(C)(=N)=O)cc3)c2)s1 (stereo not shown) [Compound 156, N-[2-amino-5-(2-methylthiazol-5-yl)phenyl]-4-(methylsulfonimidoyl)benzamide]
< 100 nM	500 to 2000 nM	Cc1ncccc1S(=N)(=O)c1ccc(C(=O)Nc2cc(-c3ccc(F)cc3)ccc2N)cc1 (stereo not shown) [Compound 190, N-[2-amino-5-(4-fluorophenyl)phenyl]-4-[(2-methyl-3-pyridyl)sulfonimidoyl]benzamide]
< 100 nM	500 to 2000 nM	COc1ccc(S(=N)(=O)c2ccc(C(=O)Nc3cc(-c4ccc(F)cc4)ccc3N)cc2)cn1 (stereo not shown) [Compound 222, N-[2-amino-5-(4-fluorophenyl)phenyl]-4-[(6-methoxy-3-pyridyl)sulfonimidoyl]benzamide]
< 100 nM	500 to 2000 nM	N=S(=O)(c1ccc(C(=O)Nc2cc(-c3ccc(F)cc3)ccc2N)cn1)C1CC1 (stereo not shown) [Compound 179, N-[2-amino-5-(4-fluorophenyl)phenyl]-6-(cyclopropylsulfonimidoyl)pyridine-3-carboxamide]
< 100 nM	> 2000 nM	CS(=N)(=O)c1ccc(C(=O)Nc2cc(-c3ccncc3)ccc2N)cc1 (stereo not shown) [Compound 108, N-[2-amino-5-(4-pyridyl)phenyl]-4-(methylsulfonimidoyl)benzamide]
< 100 nM	500 to 2000 nM	N=[S@](=O)(c1ccc(C(=O)Nc2cc(-c3ccc(F)cc3)ccc2N)cc1)C1CC1 (single isomer, unassigned) [Compound 145]
< 100 nM	500 to 2000 nM	CS(=N)(=O)c1ccc(C(=O)Nc2cc(-c3ccc(F)s3)ccc2N)cc1 (stereo not shown) [Compound 109, N-[2-amino-5-(5-fluoro-2-thienyl)phenyl]-4-(methylsulfonimidoyl)benzamide]
< 100 nM	> 2000 nM	COc1ncc(S(=N)(=O)c2ccc(C(=O)Nc3cc(-c4ccc(F)cc4)ccc3N)cc2)[nH]1 (stereo not shown) [Compound 252, N-[2-amino-5-(4-fluorophenyl)phenyl]-4-[(2-methoxy-1H-imidazol-5-yl)sulfonimidoyl]benzamide]

IC50 [1]	IC50 [2]	SMILES
< 100 nM	500 to 2000 nM	Cc1ccc(S(=N)(=O)c2ccc(C(=O)Nc3cc(-c4ccc(F)cc4)ccc3N)cc2)nc1 (stereo not shown) [Compound 231, N-[2-amino-5-(4-fluorophenyl)phenyl]-4-[(5-methyl-2-pyridyl)sulfonimidoyl]benzamide]
< 100 nM	500 to 2000 nM	N=S(=O)(c1ccc(C(=O)Nc2cc(-c3ccc(F)cc3)ccc2N)cc1)c1ccccn1 (stereo not shown) [Compound 166, N-[2-amino-5-(4-fluorophenyl)phenyl]-4-(2-pyridylsulfonimidoyl)benzamide]
< 100 nM	> 2000 nM	N=S(=O)(c1ccc(C(=O)Nc2cc(-c3ccc(F)cc3)ccc2N)cc1)c1cnc(O)nc1 (stereo not shown) [Compound 234, N-[2-amino-5-(4-fluorophenyl)phenyl]-4-[(2-hydroxypyrimidin-5-yl)sulfonimidoyl]benzamide]
< 100 nM	500 to 2000 nM	N=S(=O)(c1ccc(C(=O)Nc2cc(-c3ccc(F)cc3)ccc2N)cc1)c1cncc(Cl)c1 (stereo not shown) [Compound 245, N-(4-amino-4′-fluoro-[1,1′-biphenyl]-3-yl)-4-(5-chloropyridine-3-sulfonimidoyl)benzamide]
< 100 nM	500 to 2000 nM	CS(=N)(=O)c1ccc2sc(C(=O)Nc3cc(-c4cccs4)ccc3N)cc2c1 (stereo not shown) [Compound 138, N-[2-amino-5-(2-thienyl)phenyl]-5-(methylsulfonimidoyl)benzothiophene-2-carboxamide]
> 2000 nM	> 2000 nM	CS(=N)(=O)c1ccc(C(=O)Nc2cc(C#CC3CC3)ccc2N)cc1 (stereo not shown) [Compound 155, N-[2-amino-5-(2-cyclopropylethynyl)phenyl]-4-(methylsulfonimidoyl)benzamide]
< 100 nM	500 to 2000 nM	N=[S@@](=O)(c1ccc(C(=O)Nc2cc(-c3ccc(F)cc3)ccc2N)cc1)C1CC1 (single isomer, unassigned) [Compound 146]
< 100 nM	500 to 2000 nM	CS(=N)(=O)c1cc2sc(C(=O)Nc3cc(-c4ccc(F)cc4)ccc3N)cc2cn1 (stereo not shown) [Compound 253, N-[2-amino-5-(4-fluorophenyl)phenyl]-6-(methylsulfonimidoyl)thieno[3,2-c]pyridine-2-carboxamide]
< 100 nM	500 to 2000 nM	CS(=N)(=O)Cc1ccc(C(=O)Nc2cc(-c3ccc(F)cc3)ccc2N)cc1 (stereo not shown) [Compound 162, N-[2-amino-5-(4-fluorophenyl)phenyl]-4-[(methylsulfonimidoyl)methyl]benzamide]
< 100 nM	500 to 2000 nM	N=S(=O)(c1ccc(C(=O)Nc2cc(-c3ccc(F)cc3)ccc2N)cc1)c1ccc(F)c(F)c1 (stereo not shown) [Compound 221, N-[2-amino-5-(4-fluorophenyl)phenyl]-4-[(3,4-difluorophenyl)sulfonimidoyl]benzamide]
< 100 nM	500 to 2000 nM	N=S(=O)(c1ccc(C(=O)Nc2cc(-c3ccc(F)cc3)ccc2N)cc1)c1ccc(=O)[nH]c1 (stereo not shown) [Compound 192, N-[2-amino-5-(4-fluorophenyl)phenyl]-4-[(6-oxo-1H-pyridin-3-yl)sulfonimidoyl]benzamide]
< 100 nM	> 2000 nM	N#Cc1cncc(S(=N)(=O)c2ccc(C(=O)Nc3cc(-c4ccc(F)cc4)ccc3N)cc2)c1 (stereo not shown) [Compound 232, N-(4-amino-4′-fluoro-[1,1′-biphenyl]-3-yl)-4-(5-cyanopyridine-3-sulfonimidoyl)benzamide]
< 100 nM	500 to 2000 nM	N=S(=O)(c1ccc(C(=O)Nc2cc(-c3ccc(F)cc3)ccc2N)cc1)c1cncc(CO)c1 (stereo not shown) [Compound 250, N-(4-amino-4′-fluoro-[1,1′-biphenyl]-3-yl)-4-(5-(hydroxymethyl)pyridine-3-sulfonimidoyl)benzamide]
< 100 nM	100 to 500 nM	Cc1nc[nH]c1S(=N)(=O)c1ccc(C(=O)Nc2cc(-c3ccc(F)cc3)ccc2N)cc1 (stereo not shown) [Compound 209, N-[2-amino-5-(4-fluorophenyl)phenyl]-4-[(4-methyl-1H-imidazol-5-yl)sulfonimidoyl]benzamide]
< 100 nM	500 to 2000 nM	CS(=O)(=NC1CC1)c1ccc2sc(C(=O)Nc3cc(-c4ccc(F)cc4)ccc3N)cc2c1 (stereo not shown) [Compound 211, N-[2-amino-5-(4-fluorophenyl)phenyl]-5-(N-cyclopropyl-S-methyl-sulfonimidoyl)benzothiophene-2-carboxamide]
< 100 nM	500 to 2000 nM	CS(=N)(=O)Cc1ccc2sc(C(=O)Nc3cc(-c4ccc(F)cc4)ccc3N)cc2c1 (stereo not shown) [Compound 167, N-[2-amino-5-(4-fluorophenyl)phenyl]-5-[(methylsulfonimidoyl)methyl]benzothiophene-2-carboxamide]
< 100 nM	100 to 500 nM	CS(=N)(=O)c1cc2ccc(C(=O)Nc3cc(-c4ccc(F)cc4)ccc3N)cc2s1 (stereo not shown) [Compound 236, N-[2-amino-5-(4-fluorophenyl)phenyl]-2-(methylsulfonimidoyl)benzothiophene-6-carboxamide]
